For series [1], the target named is recombinant human PDK1 (Homo sapiens, UniProt Q15118). Description: ADP-Glo kinase assay, PDK1. On the technique in general: ADP-Glo turns the ADP formed in a reaction into a luminescent signal.
Protocol: The ability of tested compounds to inhibit the activity of PDK 1–4 isoforms was primarily assessed in cell-free experiments by a chemioluminescent assay, the ADPGlo™ Kinase Assay kit from Promega (Promega Corporation, Madison, WI, USA).
The in vitro inhibitory activity of tested compounds on recombinant human PDK1-4 isoforms (Abcam, Cambridge, MA, USA) was evaluated by using the ADPGlo™ Kinase Assay kit from Promega (Promega Corporation, Madison, WI, USA) following the instructions of the manufacturer. […] The reaction was then started by the addition of substrate/ATP for 60 min at room temperature. Subsequently, ADP-Glo™ reagent was added and incubated for 40 min prior to kinase detection reagent addition. After 30 min, the luminescence was measured with a Tecan plate reader (Tecan Infinite® M200). Raw data were normalized to the values of control wells and luminescence values for each drug dose were expressed as a percentage of the luminescence of control untreated wells. […] The evaluation was based on means from at least three independent experiments.
Series [2] deals with BxPC-3 cells. Briefly: 3D spheroid cytotoxicity, acid phosphatase (APH) assay, BxPC-3. The conditions noted are these: read-out: IC50 ±S.D. BxPC-3 (3D cytotoxicity); spheroids, 72 h, APH test.
Protocol: (§1) The PDAC cancer spheroids were treated with tested compounds for 72 h, and cell viability was assessed by means of the acid phosphatase (APH) assay (Table 3).
(§2) An APH-modified assay was used for determining cell viability in 3D spheroids, as previously described [61]. Briefly, the pre-seeded spheroids were treated with fresh medium containing the compound to be studied at the appropriate concentration (range 2.5–200 μM). Triplicate cultures were established for each treatment. After 72 h, each well was treated with 100 μL of the assay buffer (0.1 M sodium acetate, 0.1% Triton-X-100, supplemented with ImmunoPure p-nitrophenyl phosphate; Sigma Chemical Co., Ltd.) and, following 3 h of incubation, 10 μL of 1 M NaOH solution was added. […] The mean absorbance for each drug dose was expressed as a percentage of the control untreated well absorbance (T/C) and plotted vs. drug concentration. […] The evaluation was based on means from at least four independent experiments.
Series [3] concerns PSN-1 cells. Description: TEM analysis of mitochondria. The conditions noted are these: 24 h, IC50 concentrations. It counts as cell-based, human. As for the experimental part:
In addition, TEM analyses were performed on PSN-1 cancer cells after 24 h treatment with IC50 concentrations of the representative compounds 5i and 6h.
About 10^6 PSN-1 cancer cells were seeded in 24-well plates and, after 24 h incubation, were treated with IC50 concentrations of tested compounds and incubated for an additional 24 h. Cells were then washed with cold PBS, harvested, and directly fixed with 1.5% glutaraldehyde buffer with 0.2 M sodium cacodylate, pH 7.4. After washing with buffer and postfixation with 1% OsO4 in 0.2 M cacodylate buffer, specimens were dehydrated and embedded in epoxy resin (Epon Araldite). Sagittal serial sections (1 μm) were counterstained with toluidine blue; thin sections (90 nm) were given contrast by staining with uranyl acetate and lead citrate. Micrographs were taken with a Hitachi H-600 electron microscope (Hitachi, Tokyo, Japan) operating at 75 kV. All photos were typeset in Corel Draw 11.

The test system of series [4] is PSN-1 cells. Description: Mitochondrial membrane potential (Mito-ID kit). It counts as cell-based, human. The conditions noted are these: IC50 concentrations. As for the experimental part:
The ΔΨ was assayed using the Mito-ID® Membrane Potential Kit according to the manufacturer’s instructions (Enzo Life Sciences, Farmingdale, NY, USA) as previously described. Briefly, PSN-1 cells (8 × 10^3 per well) were seeded in 96-well plates; after 24 h, cells were washed with PBS and loaded with Mito-ID Detection Reagent for 30 min at 37 °C in the dark. Afterward, cells were incubated with tested compounds for 60 min. CCCP (Carbonyl cyanide 3-chlorophenyl-hydrazone) was used as the positive control. Fluorescence intensity was estimated using a VICTOR X3 (PerkinElmer, Waltham, MA, USA) plate reader at 490 (excitation) and 590 nm (emission).

The target in series [5] is recombinant human HSP90 (Homo sapiens, UniProt P07900). Briefly: HSP90 inhibition assay (Transcreener ADP kit). Type of series: biochemical. As for the experimental part: The in vitro inhibitory activity of tested compounds on recombinant human HSP90 was assessed by The Transcreener™ ADP kit (Bellbrook Labs) according to the manufacturer’s protocol. Human recombinant HSP90 protein was incubated with tested compounds in the presence of 250 μM ATP at 37 °C for 30 min, 4°C for 30 min and ATPase activity was stopped via the addition of the stop and detect buffer. Following this, samples were incubated for 1 h at room temperature with the ADP2 Antibody and the ADP Alexa594 Tracer. The fluorescence intensity polarization of samples was measured with a Tecan plate reader (Tecan Infinite® M200). The evaluation was based on means from at least three independent experiments.

Series [6] relates to PSN-1 cells. Briefly: 3D spheroid cytotoxicity, acid phosphatase (APH) assay, PSN-1. The conditions noted are these: read-out: IC50 ±S.D. PSN-1 (3D cytotoxicity); spheroids, 72 h, APH test.
Protocol: as §1, §2
Series [7] relates to caspase-3 and -8 in PSN-1 cells. Description: Caspase-3 and -8 activity. Type of series: cell-based, human. To be noted: 24 h, IC50 doses. As for the experimental part: Apoptotic cell death can be triggered by a mitochondria-mediated or mitochondrial-independent pathways. In the […], caspase-8 and caspase-3 play an essential role. […] Staurosporine (STS), an alkaloid inducing apoptosis through caspase-3 and -8 activation was used as a positive control. […] Caspase-3 and -8 cleavage reached values similar to that induced by the well-known caspase-dependent apoptosis inducer staurosporine (Figure 10C).
Protein aliquots (100 μg) were stained at 37 °C for 60 min with fluorescent caspase-3 (N-acetyl-Asp-Glu-Val-Asp-AMC, AMC = 7-amino-4-methylcoumarin) or caspase-8 (Ac-Val-Glu-Thr-Asp-AMC) substrates. Substrate hydrolysis was measured after 60 min by monitoring the release of AMC using a a Tecan microplate reader (excitation at 370 nm, emission at 460 nm).

Series [8] has as its system PSN-1 cells. Briefly: Cell death induction, Hoechst 33258 staining. Type of series: cell-based, human. To be noted: 48 h, IC50 doses. As for the experimental part:
As a last mechanistic evaluation, the ability of selected compounds 5i and 6h to induce cancer cell death by means of apoptosis, was also assessed.
PSN-1 cells were seeded into 8-well tissue-culture slides (BD Falcon, Bedford, MA, USA) at 5 × 10^4 cells/well (0.8 cm^2). […] Samples were examined at 5× and 40× magnification in a Zeiss LSM 800 confocal microscope using the Zeiss ZEN 2.3 software system (Zeiss, Oberkochen, Germany).

Series [9] concerns PSN-1 cells. Briefly: ROS production (CM-H2DCFDA). Type of series: cell-based, human. To be noted: 5 µM test compounds, antimycin 3 µM as positive control. As for the experimental part: Consistently, tested compounds, although to different extents, were effective in reducing total cellular sulfhydryl contents in PSN-1-treated cells (Figure 9B).
The production of ROS was measured in PSN-1 cells (10^4 per well) grown for 24 h in a 96-well plate in RPMI medium without phenol red (Sigma Aldrich, Germany). Cells were then washed with PBS and loaded with 10 μM 5-(and-6)-chloromethyl-2′,7′-dichlorodihydrofluorescein diacetate acetylester (CM–H2DCFDA) (Molecular Probes-Invitrogen, Eugene, OR, USA) for 45 min, in the dark. Afterward, cells were washed with PBS and incubated with tested compounds. Fluorescence increase was estimated utilizing the wavelengths of 485 nm (excitation) and 527 nm (emission) in a VICTOR X3 (PerkinElmer, USA) plate reader. Antimycin (3 μM, Sigma Aldrich), a potent inhibitor of Complex III in the electron transport chain, was used as the positive control.

Chain of recombinant human PDK1 (Q15118 29-436): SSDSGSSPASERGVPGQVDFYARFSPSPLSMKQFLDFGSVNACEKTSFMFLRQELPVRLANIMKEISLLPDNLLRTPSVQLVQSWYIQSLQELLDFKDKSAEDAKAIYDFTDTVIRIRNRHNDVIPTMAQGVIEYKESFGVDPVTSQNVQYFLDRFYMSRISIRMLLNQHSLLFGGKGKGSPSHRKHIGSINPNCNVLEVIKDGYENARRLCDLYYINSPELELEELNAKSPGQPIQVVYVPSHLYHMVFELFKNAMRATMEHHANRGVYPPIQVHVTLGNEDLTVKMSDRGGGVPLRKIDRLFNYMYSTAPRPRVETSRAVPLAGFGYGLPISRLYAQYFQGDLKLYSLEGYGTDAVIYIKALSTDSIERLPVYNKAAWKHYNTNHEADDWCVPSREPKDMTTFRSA

For `COc1ccc2c(c1)c(-c1nnc(N)nc1-c1cn(C)c3ccccc13)cn2C` [6h], the IC50 in [1] was found to be 80 ± 10 nM; in series [2], 33.4 ± 3.6 µM; in [5], 200 nM; in series [6], 24.3 ± 1.4 µM. For the same compound, in series [1] (1.5 µM compound, 30 min preincubation), the “effect on enzymatic activity of PDK1” value is “totally suppressed”. For the same compound, the “mitochondrial morphology (TEM)” value in [3] was “dramatic swelling of the mitochondria”. For the same compound, in series [4], the “percentage of cells with hypopolarized mitochondrial membrane potential (in words)” value was “significantly increased”. The “effect on HSP90 enzyme activity” value in series [5] (1.5 µM compound) is recorded as “completely abolish the enzyme activity”. For the same compound, the “caspase-3 and -8 activation” value in [7] is reported as “significantly activated”. Moreover, the “apoptosis induction (nuclear morphology)” value in series [8] is “brightly stained nuclei and morphological features typical of cells undergoing apoptosis”. The “ROS basal level production / hydrogen peroxide formation” value in series [9] is on record as “increase in the ROS basal level production”.

As a reminder, the IC50 is the point on the concentration scale where inhibition reaches its midpoint.

For the origin of these results see publication PMC9959349, “Discovery of the 3-Amino-1,2,4-triazine-Based Library as Selective PDK1 Inhibitors with Therapeutic Potential in Highly Aggressive Pancreatic Ductal Adenocarcinoma” (International Journal of Molecular Sciences, 2023).
